Values of other authors, collected in patent US20180064146A1, “METHOD FOR THE SURFACE DECONTAMINATION OF PACKAGED SOLID FOOD” (priority 2015, published 2018).

What was measured:
[1] = test system: Escherichia coli; conditions: for MICs (in liquid form): agar dilution, oil in liquid form; for MIDs (as vapour): oil as vapour
[2] = test system: strains of Arcobacter butzleri; conditions: vapours; Arcobacter butzleri in cabbage leaf; to an undetectable level

SMILES: CC(C)=CCCC(C)=CC=O [Citral]
- MICs (in liquid form) [1]: 800 µg/mL
- MIDs (as vapour) [1]: 12.5 μg/cm^2
- microbial load reduction [2]: 7 log CFU/2 cm^2

SMILES: C=C(C)[C@H]1CC=C(C)CC1 [Limonene]
- MICs (in liquid form) [1]: 3200 µg/mL
- MIDs (as vapour) [1]: 800 μg/cm^2

SMILES: C=CC(C)(O)CCC=C(C)C (centres unmarked) [Linalool]
- MICs (in liquid form) [1]: 3200 µg/mL
- MIDs (as vapour) [1]: 50 μg/cm^2
- microbial load reduction [2]: 7 log CFU/2 cm^2
